Structures can show the parent of a compound that is named as a salt.

The text below walks through data of patent publication US8410288B2, “Polymorphs of Saxagliptin hydrochloride and processes for preparing them” (Teva Pharmaceutical Industries Ltd., priority 2010, dated 2013).

Type in all cases: physicochemical
A short description of data set [1]: Solubility measurement (time to clear solution in distilled water). To be noted: compared to other solid state forms of Saxagliptin hydrochloride. How it is done:
Equal mass of samples was suspended in equal volume of distilled water. Suspensions were slightly mixed, time was recorded at the moment of clear solution appearance.

Data set [2] can be described thus: Tapped density measurement. To be noted: 450 mg sample; for tapped density: 10 ml graduated cylinder, tapped 200 times; for volume of sample after tapping: 10 ml measuring flask, tapped 200 times with equal force. As for the experimental part:
Samples were tapped the same number of times (200 times) with equal force. Volume of each sample was recorded: (1.4 ml for Form K; 1.6 ml for H2-1).

Data set [3] can be described thus: Particle morphology (SEM), filterability and powder flowability. Conditions: small plate to rod-shaped particles. An excerpt: Equipment: Jeol JSM-5800 scanning microscope, Sputtered with gold by Edwards S150 sputter coater

With `N#C[C@@H]1C[C@@H]2C[C@@H]2N1C(=O)[C@@H](N)C12CC3CC(CC(O)(C3)C1)C2` [form Z, Saxagliptin hydrochloride], the dissolution rate result in data set [1] is recorded as “high dissolution rate”.

As for `N#C[C@@H]1C[C@@H]2C[C@@H]2N1C(=O)[C@@H](N)C12CC3CC(CC(O)(C3)C1)C2` [form K, Saxagliptin hydrochloride], in data set [2] (hydrochloride), the tapped density result is reported as “about 0.32 g/ml” and the “volume of sample after tapping” value was determined as 1.4 mL.

In the case of `N#C[C@@H]1C[C@@H]2C[C@@H]2N1C(=O)[C@@H](N)C12CC3CC(CC(O)(C3)C1)C2` [form D, Saxagliptin hydrochloride], in data set [3], the “filterability and powder flowability” value is “good filterability and powder flowability properties”.

On to `N#C[C@@H]1C[C@@H]2C[C@@H]2N1C(=O)[C@@H](N)C12CC3CC(CC(O)(C3)C1)C2` [form H2-1, Saxagliptin hydrochloride dihydrate, reference compound], for which, in data set [2] (hydrochloride dihydrate), the tapped density result is on record as “about 0.28 g/ml” and the “volume of sample after tapping” value worked out at 1.6 mL.
